The values below come from patent US20250049078A1, “ECO-FRIENDLY ADDITIVES FOR HAY AND SILAGE INOCULANTS MINIMIZING GREENHOUSE GAS EMISSIONS” (Kansas State University Research Foundation, priority 2021, published 2025).

Experiment [1] relates to N2O production from corn, alfalfa, and sorghum silages (denitrifiers). The experiment is described as follows: N2O production from laboratory mini silos (simulated silage) with different treatments, fourth part of the study. The following applies: for reduction of N2O production: inoculant + additive 0.1% (w/w), corn, alfalfa, sorghum silages, FIG. 4A, three replicates. The protocol:
GHG production from simulated silage. Laboratory experiments were performed to estimate the GHG emission potentials from silage conservation (i.e. anaerobic conservation). In a first part of the study, N2O production from forage silos was studied. The forages used were corn, alfalfa, and sorghum. The mini silos consisted of 1 L glass jars connected to a 1-L Tedlar bag. The forage was chopped into 2-3 cm pieces with a laboratory chopper and ensiled in laboratory mini silos at a bulk density of 700 kg/m^3 (700 grams per silo). The experiments were performed in an incubator at 30° C. in the dark, and the produced gas volume and composition were measured periodically for 30 days.
(§1) The treatments compared in this research consisted of (1) no treatment, (2) commercial silage inoculant (Pioneer® inoculant), (3) inoculant+chlorate (0.1%, w/w), and (4) inoculant+acetate (0.1%, w/w). Three replicates for each treatment were performed.
In the fourth part of the study, three replicates for each treatment were added to forage silos prepared as described in paragraph [0052].

Experiment [2] has as its system N2O production from simulated silage (denitrifiers). The experiment is described as follows: N2O production from alfalfa mini silos (simulated silage) with different treatments, fifth part of the study. The following applies: for effect on N2O production: amendment 0.1% (w/w), P<0.001. The protocol: In a second part of the study, N2O and CH4 production from forage silos were studied. The forage used was second cut alfalfa (HVX MegaTron) harvested at the early flower stage. The mini silos consisted of 1 L glass jars connected to a 1-L Tedlar bag. The forage was chopped into 2-3 cm pieces with a laboratory chopper and ensiled in laboratory mini silos at a bulk density of 700 kg/m^3 (700 grams per silo). The experiments were performed in an incubator at 30° C. in the dark, and the produced gas volume and composition were measured periodically for 35 days.
as §1
In the fifth part of the study, three replicates for each treatment were added to forage silos prepared as described in paragraph [0054].

Regarding `[O-][Cl+2]([O-])O` [chlorate], the “reduction of N2O production” value in experiment [1] was “up to 99%”. Further, the “reduction of N2O” value in experiment [1] (lower concentrations up to 0.01% (w/w), alfalfa silage, FIG. 4B) is “higher than 90%”. For the same compound, the “effect on N2O production” value in experiment [2] (preliminary study) is “significantly repressed”. The “reduction of N2O production (fold)” value in experiment [2] (inoculant + 0.1% (w/w) chlorate, alfalfa silage, FIG. 4C) is recorded as “more than ten times”.

In the case of `CC(=O)O` [acetate], the “reduction of N2O production” value is recorded as “up to 25%” in experiment [1] and 25% in experiment [2] (inoculant + 0.1% (w/w) acetate, alfalfa silage, P<0.01, FIG. 4C). Further, the “reduction of total amount of N2O” value in experiment [2] (acetate as a sodium salt, 1 g per kg-forage, preliminary study) is 25%. In addition, the “effect on N2O production” value in experiment [2] (preliminary study) is “significantly repressed”.
